Experimental data as given in patent US12384776B2, “Compounds and uses thereof” (Foghorn Therapeutics Inc., priority 2019, dated 2025).

Biological target: Nanoluciferase-BRD9 fusion protein (3×FLAG-NLuc-BRD9) in SYO-1 cells (Homo sapiens (Human), UniProt Q9H8M2)
Test: SYO1 BRD9 NanoLuc degradation assay
Format: cell-based
Conditions: SYO-1 cells expressing 3×FLAG-NLuc-BRD9, 6 hours incubation, top dose 1 μM
Description: Procedure: A stable SYO-1 cell line expressing 3×FLAG-NLuc-BRD9 was generated. On day 0 cells were seeded in 30 μL media into each well of 384-well cell culture plates. The seeding density was 8000 cells/well. On day 1, cells were treated with 30 nL DMSO or 30 nL of 3-fold serially DMSO-diluted compounds (10 points in duplicates with 1 μM as final top dose). Subsequently plates were incubated for 6 hours in a standard tissue culture incubator and equilibrated at room temperature for 15 minutes. Nanoluciferase activity was measured by adding 15 μL of freshly prepared Nano-Glo Luciferase Assay Reagent (Promega N1130), shaking the plates for 10 minutes and reading the bioluminescence using an EnVision reader.
Results: The Inhibition % was calculated using the following formula: % Inhibition=100×(LumHC−LumSample)/(LumHC−LumLC). DMSO treated cells are employed as High Control (HC) and 1 μM of a known BRD9 degrader standard treated cells are employed as Low Control (LC).

Sequence of Nanoluciferase-BRD9 fusion protein (3×FLAG-NLuc-BRD9) in SYO-1 cells (Q9H8M2 whole entry, the tested form may be a part): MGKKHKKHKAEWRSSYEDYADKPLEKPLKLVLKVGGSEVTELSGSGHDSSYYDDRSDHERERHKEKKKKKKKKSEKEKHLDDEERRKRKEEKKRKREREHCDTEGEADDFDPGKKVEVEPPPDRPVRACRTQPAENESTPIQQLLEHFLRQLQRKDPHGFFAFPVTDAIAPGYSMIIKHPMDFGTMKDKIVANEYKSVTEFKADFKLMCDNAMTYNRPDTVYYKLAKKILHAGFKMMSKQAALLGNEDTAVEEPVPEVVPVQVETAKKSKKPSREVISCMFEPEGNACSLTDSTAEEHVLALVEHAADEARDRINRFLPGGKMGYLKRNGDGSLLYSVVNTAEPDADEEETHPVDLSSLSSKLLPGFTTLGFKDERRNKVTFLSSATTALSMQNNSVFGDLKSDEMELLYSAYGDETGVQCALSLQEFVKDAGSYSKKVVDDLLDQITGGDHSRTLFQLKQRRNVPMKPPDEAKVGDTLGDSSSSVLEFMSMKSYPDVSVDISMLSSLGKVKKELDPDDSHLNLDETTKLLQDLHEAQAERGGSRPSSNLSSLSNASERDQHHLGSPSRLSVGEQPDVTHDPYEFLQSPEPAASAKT

`CNC(=O)N1Cc2c(-c3cc(OC)c(CN4CCC5(CC4)CN(c4ccc6c(c4)C(=O)N([C@@H]4CCC(=O)NC4=O)C6=O)C5)c(OC)c3)cn(C)c(=O)c2C1` [Compound D300] and `CNC(=O)N1CCc2c(-c3cc(OC)c(CN4CC(CN5CCC6(CC5)CN(c5ccc7c(c5)C(=O)N(C5CCC(=O)NC5=O)C7=O)C6)C4)c(OC)c3)cn(C)c(=O)c2C1` (centres unmarked) [Compound D109] cannot be ordered by IC50: less than 10 nM for the first, less than 10 nM for the second.

Compared with `CNC(=O)N1CCc2c(-c3cc(OC)c(CN4CCC(CCN5CC6CN(c7ccc8c(c7)C(=O)N(C7CCC(=O)NC7=O)C8=O)CC6C5)CC4)c(OC)c3)cn(C)c(=O)c2C1` (centres unmarked) [Compound D196], `CNC(=O)N1CCc2c(-c3cc(OC)c(CN4CCC(CCN5CCN(c6ccc7c(c6)C(=O)N(C6CCC(=O)NC6=O)C7=O)CC5)C4)c(OC)c3)cn(C)c(=O)c2C1` (centres unmarked) [Compound D148] is higher in IC50: less than 10 nM for the first, 10 to 100 nM for the second.

`CNC(=O)N1CCc2c(-c3cc(OC)c(CN4CCC(CN(C(C)C)C5CC(Oc6ccc7c(c6)C(=O)N(C6CCC(=O)NC6=O)C7=O)C5)CC4)c(OC)c3)cn(C)c(=O)c2C1` (centres unmarked) [Compound D125] and `CNC(=O)N1CCc2c(-c3cc(OC)c(CN4CCC(CCN5CCC(c6ccc7c(c6)C(=O)N(C6CCC(=O)NC6=O)C7=O)CC5)CC4)c(OC)c3)cn(C)c(=O)c2C1` (centres unmarked) [Compound D113] cannot be ordered by IC50: less than 10 nM for the first, less than 10 nM for the second.

Compared with `CNC(=O)N1CCc2c(-c3cc(OC)c(CN4CC(C#Cc5ccc6c(c5)C(=O)N(C5CCC(=O)NC5=O)C6=O)C4)c(OC)c3)cn(C)c(=O)c2C1` (centres unmarked) [Compound D142], `CNC(=O)N1CCc2c(-c3cc(OC)c(CN4CC(CN5CCN(c6ccc7c(c6)C(=O)N(C6CCC(=O)NC6=O)C7=O)CC5)C4)c(OC)c3)cn(C)c(=O)c2C1` (centres unmarked) [Compound D168] is higher in IC50: less than 10 nM for the first, 10 to 100 nM for the second. The first is the more potent here.

`COc1cc(-c2cn(C)c(=O)c3c2CCN(C(=O)NCCCN2CCC(OC4CCN(c5ccc6c(c5)C(=O)N(C5CCC(=O)NC5=O)C6=O)CC4)C2)C3)cc(OC)c1CN(C)C` (centres unmarked) [Compound D225] and `COc1cc(-c2cn(C)c(=O)c3c2CCN(C(=O)NCCCN2CC4(CCN(c5ccc6c(c5)C(=O)N(C5CCC(=O)NC5=O)C6=O)C4)C2)C3)cc(OC)c1CN(C)C` (centres unmarked) [Compound D210] fall in the same range of IC50: 10 to 100 nM for the first, 10 to 100 nM for the second.

First: COC(=O)N1CCc2c(-c3cc(OC)c(CN4CCC(CCN5CCN(c6ccc7c(c6)C(=O)N(C6CCC(=O)NC6=O)C7=O)CC5)CC4)c(OC)c3)cn(C)c(=O)c2C1 (centres unmarked) [Compound D64]
Second: CNC(=O)N1CCc2c(-c3cc(OC)c(CN4CC(CCN5CCN(c6ccc7c(c6)C(=O)N(C6CCC(=O)NC6=O)C7=O)CC5)C4)c(OC)c3)cn(C)c(=O)c2C1 (centres unmarked) [Compound D258]
The IC50 of the first is lower: less than 10 nM for the first, 100 to 1000 nM for the second.

Compared with `CNC(=O)N1CCc2c(c(-c3cc(OC)c(CN4CC5CN(C(=O)CCOCCOc6ccc7c(c6)C(=O)N(C6CCC(=O)NC6=O)C7=O)CCC54)c(OC)c3)cn(C)c2=O)C1` (centres unmarked) [Compound D295], `CNC(=O)N1CCc2c(-c3cc(OC)c(CN4CC5CN(C(=O)CCOCCOc6ccc7c(c6)C(=O)N(C6CCC(=O)NC6=O)C7=O)CCC54)c(OC)c3)cn(C)c(=O)c2C1` (centres unmarked) [Compound D289] is lower in IC50: 100 to 1000 nM for the first, 10 to 100 nM for the second.

Compared with `CNC(=O)N1CCc2c(-c3cc(OC)c(CN4CC5(CC(N6Cc7cc8c(cc7C6)C(=O)N(C6CCC(=O)NC6=O)C8=O)C5)C4)c(OC)c3)cn(C)c(=O)c2C1` (centres unmarked) [Compound D177], `CNC(=O)N1CCc2c(-c3cc(OC)c(CN4CC(CCCN5CCN(c6ccc7c(c6)C(=O)N(C6CCC(=O)NC6=O)C7=O)CC5)C4)c(OC)c3)cn(C)c(=O)c2C1` (centres unmarked) [Compound D257] is higher in IC50: 10 to 100 nM for the first, no less than 1000 nM for the second. The first is the more potent here.

`COc1cc(-c2cn(C)c(=O)c3c2CCN(C(=O)NC2CC4CC2CN4CCCOc2ccc4c(c2)C(=O)N(C2CCC(=O)NC2=O)C4=O)C3)cc(OC)c1CN(C)C` (centres unmarked) [Compound D270] and `COc1cc(-c2cn(C)c(=O)c3c2CCN(C(=O)NC2C[C@@H]4CN(CCOc5ccc6c(c5)C(=O)N(C5CCC(=O)NC5=O)C6=O)C[C@H]24)C3)cc(OC)c1CN(C)C` (some centres unmarked) [Compound D249] cannot be ordered by IC50: 100 to 1000 nM for the first, no less than 1000 nM for the second.

`CNC(=O)N1CCc2c(-c3cc(OC)c(CC4CCN(CCN5CCN(c6ccc7c(c6)C(=O)N(C6CCC(=O)NC6=O)C7=O)CC5)CC4)c(OC)c3)cn(C)c(=O)c2C1` (centres unmarked) [Compound D130] and `CNC(=O)N1CCc2c(-c3cc(OC)c(CN4CCOC(CCCN5CCN(c6ccc7c(c6)C(=O)N(C6CCC(=O)NC6=O)C7=O)CC5)C4)c(OC)c3)cn(C)c(=O)c2C1` (centres unmarked) [Compound D151] cannot be ordered by IC50: less than 10 nM for the first, less than 10 nM for the second.

First: COc1cc(-c2cn(C)c(=O)c3c2CCN(C(=O)NC2CCC24CCN(CCCOc2ccc5c(c2)C(=O)N(C2CCC(=O)NC2=O)C5=O)CC4)C3)cc(OC)c1CN(C)C (centres unmarked) [Compound D237]
Second: COc1cc(-c2cn(C)c(=O)c3c2CCN(C(=O)NCC2CC4(C2)CN(CCOc2ccc5c(c2)C(=O)N(C2CCC(=O)NC2=O)C5=O)C4)C3)cc(OC)c1CN(C)C (centres unmarked) [Compound D268]
The IC50 of the first is higher: no less than 1000 nM for the first, 10 to 100 nM for the second. The second is the more potent here.

`COc1cc(-c2cn(C)c(=O)c3c2CCN(C(=O)NCCCCCCCCNc2cccc4c2CN(C2CCC(=O)NC2=O)C4=O)C3)cc(OC)c1CN1CCC1` (centres unmarked) [Compound D89] and `CNC(=O)N1CCc2c(-c3cc(OC)c(CN4CCC(CCN5CCC(c6ccc7c(c6)C(=O)N(C6CCC(=O)NC6=O)C7)CC5)CC4)c(OC)c3)cn(C)c(=O)c2C1` (centres unmarked) [Compound D73] cannot be ordered by IC50: less than 10 nM for the first, less than 10 nM for the second.

First: COc1cc(-c2cn(C)c(=O)c3c2CCN(C(=O)NCC2CC4(CCN(CCCCN5CCN(c6ccc7c(c6)C(=O)N(C6CCC(=O)NC6=O)C7=O)CC5)CC4)C2)C3)cc(OC)c1CN(C)C (centres unmarked) [Compound D218]
Second: COc1cc(-c2cn(C)c(=O)c3c2CCN(C(=O)NCC2CC4(C2)CN(CCCCN2CCN(c5ccc6c(c5)C(=O)N(C5CCC(=O)NC5=O)C6=O)CC2)C4)C3)cc(OC)c1CN(C)C (centres unmarked) [Compound D219]
The IC50 of the first is lower: 10 to 100 nM for the first, 100 to 1000 nM for the second.

Compared with `CNC(=O)N1CCc2c(-c3cc(OC)c(CN(C)CC45CC(C(=O)NCCCCCOc6ccc7c(c6)C(=O)N(C6CCC(=O)NC6=O)C7=O)(C4)C5)c(OC)c3)cn(C)c(=O)c2C1` (centres unmarked) [Compound D286], `CNC(=O)N1CCc2c(-c3cc(OC)c(CN(C)CCOCCN4CCN(c5ccc6c(c5)C(=O)N(C5CCC(=O)NC5=O)C6=O)CC4)c(OC)c3)cn(C)c(=O)c2C1` (centres unmarked) [Compound D284] is lower in IC50: 100 to 1000 nM for the first, 10 to 100 nM for the second. The second is the more potent here.

`COc1cc(-c2cn(C)c(=O)c3c2CCN(C(=O)NCCN2CCC4(CCN(c5ccc6c(c5)C(=O)N(C5CCC(=O)NC5=O)C6=O)C4)C2)C3)cc(OC)c1CN(C)C` (centres unmarked) [Compound D190] and `COc1cc(-c2cn(C)c(=O)c3c2CCN(C(=O)NCCN2CC4(CCN(c5ccc6c(c5)C(=O)N(C5CCC(=O)NC5=O)C6=O)CC4)C2)C3)cc(OC)c1CN(C)C` (centres unmarked) [Compound D191] fall in the same range of IC50: 100 to 1000 nM for the first, 100 to 1000 nM for the second.

`[2H]C1([2H])N(CCC2CCN(c3ccc4c(c3)C(=O)N(C3CCC(=O)NC3=O)C4=O)CC2)C([2H])([2H])C([2H])([2H])N(Cc2c(OC)cc(-c3cn(C)c(=O)c4c3CCN(C(=O)NC)C4)cc2OC)C1([2H])[2H]` (centres unmarked) [Compound D105] and `CNC(=O)N1CCc2c(-c3cc(OC)c(CN4CCC(CCN5CCN(c6cc7c(cc6F)CN(C6CCC(=O)NC6=O)C7=O)CC5)CC4)c(OC)c3)cn(C)c(=O)c2C1` (centres unmarked) [Compound D83] cannot be ordered by IC50: less than 10 nM for the first, less than 10 nM for the second.

`CNC(=O)N1CCc2c(c(-c3cc(OC)c(CN(C)CC(=O)NCCOCCOc4cccc5c4C(=O)N(C4CCC(=O)NC4=O)C5=O)c(OC)c3)cn(C)c2=O)C1` (centres unmarked) [Compound D297] and `CNC(=O)N1CCc2c(-c3cc(OC)c(CN4CC(S(=O)(=O)NCCCOc5cccc6c5C(=O)N(C5CCC(=O)NC5=O)C6=O)C4)c(OC)c3)cn(C)c(=O)c2C1` (centres unmarked) [Compound D280] cannot be ordered by IC50: no less than 1000 nM for the first, 100 to 1000 nM for the second.

First: CNC(=O)N1CCc2c(-c3cc(OC)c(CN4CCN(CCN5CCC(c6ccc7c(c6)C(=O)N(C6CCC(=O)NC6=O)C7)CC5)CC4)c(OC)c3)cn(C)c(=O)c2C1 (centres unmarked) [Compound D71]
Second: COc1cc(-c2cn(C)c(=O)c3c2CCN(C(=O)NCC2CC4(CCN(CCCCN5CCN(c6ccc7c(c6)C(=O)N(C6CCC(=O)NC6=O)C7=O)CC5)CC4)O2)C3)cc(OC)c1CN(C)C (centres unmarked) [Compound D193]
The IC50 of the first is lower: less than 10 nM for the first, no less than 1000 nM for the second.

Same assay, conditions: SYO-1 cells, 6 hours, Table 6C

`COc1cc(-c2cn(C)c(=O)c3c2COC3)cc(OC)c1CN1CC(C#Cc2ccc3c(c2)C(=O)N(C2CCC(=O)NC2=O)C3)C1` (centres unmarked) [Compound D367] and `COc1cc(-c2cn(C)c(=O)c3c2NCC3)cc(OC)c1CN1CC(CN2CCC3(CC2)CN(c2ccc4c(c2)C(=O)N(C2CCC(=O)NC2=O)C4)C3)C1` (centres unmarked) [Compound D350] cannot be ordered by IC50: less than 10 nM for the first, less than 10 nM for the second.

`CNC(=O)N1CCc2c(-c3cc(OC)c(CN4CCC(C(N5CCC6(CC5)CC(Oc5ccc7c(c5)C(=O)N(C5CCC(=O)NC5=O)C7)C6)C(F)(F)F)CC4)c(OC)c3)cn(C)c(=O)c2C1` (centres unmarked) [Compound D345] and `CNC(=O)N1CCc2c(-c3cc(OC)c(CN4CCC5(CC4)CN(c4ccc6c(c4)C(=O)N(C4CCC(=O)NC4=O)C6)C5)c(OC)c3)cn(C)c(=O)c2C1` (centres unmarked) [Compound D308] cannot be ordered by IC50: less than 10 nM for the first, less than 10 nM for the second.

First: CNC(=O)N1CCc2c(-c3cc(OC)c(CN4CCN(CCC5CCN(c6ccc7c(c6)C(=O)N(C6CCC(=O)NC6=O)C7=O)CC5)CC4)c(OC)c3)c(C)n(C)c(=O)c2C1 (centres unmarked) [Compound D337]
Second: [2H]C([2H])([2H])NC(=O)N1CCc2c(-c3cc(OC)c(CN4CCN(CCC5CCN(c6ccc7c(c6)C(=O)N(C6CCC(=O)NC6=O)C7)CC5)CC4)c(OC)c3)cn(C)c(=O)c2C1 (centres unmarked) [Compound D341]
The IC50 of the first is higher: no less than 1000 nM for the first, less than 10 nM for the second.

`CCc1cc(-c2cn(C)c(=O)c3c2CCN(C(=O)NC)C3)cc(OC)c1CN1CCN(CCC2CCN(c3ccc4c(c3)C(=O)N(C3CCC(=O)NC3=O)C4)CC2)CC1` (centres unmarked) [Compound D327] and `COc1cc(-c2cn(C)c(=O)c3c2CCN(C(=O)NCC(F)F)C3)cc(OC)c1CN1CCC(CN2CCC3(CC2)CN(c2ccc4c(c2)C(=O)N(C2CCC(=O)NC2=O)C4)C3)CC1` (centres unmarked) [Compound D336] cannot be ordered by IC50: less than 10 nM for the first, less than 10 nM for the second.
